This note sets out measurements from ChEMBL document CHEMBL1125850, “Synthesis of substrate-based inhibitors of HMG CoA reductase” (Bioorg Med Chem Lett, 1991).

Holding throughout (type): microsomes
Common to all, as to settings: Microsome

In assay [1] the target is T1, 3-hydroxy-3-methylglutaryl-coenzyme A reductase (Rattus norvegicus) (UniProt P51639).
T1 sequence (whole entry): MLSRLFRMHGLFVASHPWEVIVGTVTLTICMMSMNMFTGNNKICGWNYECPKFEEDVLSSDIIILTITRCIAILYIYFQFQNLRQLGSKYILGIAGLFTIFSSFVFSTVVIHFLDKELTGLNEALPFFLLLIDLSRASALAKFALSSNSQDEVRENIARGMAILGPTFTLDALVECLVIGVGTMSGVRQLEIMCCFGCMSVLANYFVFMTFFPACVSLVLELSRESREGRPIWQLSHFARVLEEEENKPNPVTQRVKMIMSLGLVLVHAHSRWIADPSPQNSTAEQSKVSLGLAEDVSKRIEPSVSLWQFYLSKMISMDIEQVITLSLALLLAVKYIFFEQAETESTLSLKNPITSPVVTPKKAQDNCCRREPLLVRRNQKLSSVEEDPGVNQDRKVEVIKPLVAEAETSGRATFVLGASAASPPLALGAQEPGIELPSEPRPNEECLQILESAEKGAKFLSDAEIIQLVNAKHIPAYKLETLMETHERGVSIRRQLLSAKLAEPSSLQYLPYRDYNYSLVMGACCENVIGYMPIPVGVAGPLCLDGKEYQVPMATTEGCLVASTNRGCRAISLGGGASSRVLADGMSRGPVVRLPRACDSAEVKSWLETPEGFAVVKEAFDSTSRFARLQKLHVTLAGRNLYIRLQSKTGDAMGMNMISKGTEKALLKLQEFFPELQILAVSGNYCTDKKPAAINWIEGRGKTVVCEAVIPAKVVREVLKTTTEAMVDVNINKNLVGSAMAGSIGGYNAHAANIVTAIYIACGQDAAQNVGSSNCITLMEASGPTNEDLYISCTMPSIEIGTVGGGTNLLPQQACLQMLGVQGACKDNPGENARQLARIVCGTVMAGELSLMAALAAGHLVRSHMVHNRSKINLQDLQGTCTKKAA
Kind of assay: Inhibition of enzyme activity in a rat hepatic microsomal HMG-CoA reductase at 100 uM; IA means inactive.

Assay [2] deals with T1, 3-hydroxy-3-methylglutaryl-coenzyme A reductase (Rattus norvegicus). Kind of assay: Inhibition of enzyme activity in a rat hepatic microsomal HMG-CoA reductase at 100 uM IA means inactive.
Assay [3] shares this target. Description: Inhibition of enzyme activity in a rat hepatic microsomal HMG-CoA reductase at 100 uM.

The structures appear in SMILES notation. Calls of active or inactive are those of the source. No cut-off for these calls is given here.

As for `CC(C)[C@@H](O)C(=O)NCCC(=O)NCCSCC(O)CC(O)CC(=O)O` (stereo partly drawn), the result in assay [1] was inactive. As to `CC(C)[C@@H](O)C(=O)NCCC(=O)NCCSCC(=O)CC(O)CC(=O)O` (stereo partly drawn), the outcome in assay [2] was inactive.

The term inhibition denotes the drop in the measured response relative to a control, in per cent. A higher inhibition goes with a response far below the control. `CC(C)[C@@H](O)C(=O)NCCC(=O)NCCSCCC(O)CC(=O)O` (stereo partly drawn) returned an inhibition in assay [3] of 24%.
